The record followed here is article PMC11883664, “Expansion of the diversity of dispersin scaffolds” (Acta Crystallographica Section D: Structural Biology, 2025).

In data set [1] the target is T1, DispTs2 (Terribacillus saccharophilus, UniProt A0A075LPR4).
T1 construct: gene GZ22_15930; mature polypeptide with polyhistidine tag
The data set can be described thus: ITC and crystal structure ([…] Å). Format: binding.

The target in another data set is T2, DispSf.
T2 construct: mature polypeptide with polyhistidine tag
The data set can be described thus: ITC. In kind it is binding, Mammaliicoccus fleurettii.

The next data set has as its target T3, DispLp (Lactiplantibacillus paraplantarum, UniProt A0AAD0TQY4).
T3 construct: gene LP667_05900; mature polypeptide with polyhistidine tag
T3 sequence (A0AAD0TQY4 31-361): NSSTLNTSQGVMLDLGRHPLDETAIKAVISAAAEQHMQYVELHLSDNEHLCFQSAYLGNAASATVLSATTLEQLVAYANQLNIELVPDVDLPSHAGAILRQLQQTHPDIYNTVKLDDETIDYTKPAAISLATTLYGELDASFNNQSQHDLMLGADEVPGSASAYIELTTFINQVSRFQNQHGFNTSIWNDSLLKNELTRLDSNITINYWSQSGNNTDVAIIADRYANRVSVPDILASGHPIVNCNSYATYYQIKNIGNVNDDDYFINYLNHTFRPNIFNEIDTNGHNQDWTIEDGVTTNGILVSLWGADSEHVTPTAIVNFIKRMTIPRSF
Kind of data set: crystal structure ([…] Å) and ITC. In kind it is binding.

Data set [2] concerns the target T1, DispTs2. The data set can be described thus: crystal structure by soaking ([…] Å); only the NAG-thiazoline unit (NGT) modelled. In kind it is binding.
Substrate in the data set “purified protein”: CC(=O)N[C@H]1[C@H](Oc2ccc3c(C)cc(=O)oc3c2)O[C@H](CO)[C@@H](O)[C@@H]1O
Kind of data set: purified protein.

On to `CC(=O)N[C@H]1CN2CC[C@H](O)[C@@H]2[C@@H](O)[C@@H]1O` [6-Ac-Cas, 6-acetamido-6-deoxy-castanospermine], for which the dissociation constant Kd (commonly the equilibrium constant for the complex coming apart) at DispTs2 [1] worked out at 6 µM; on DispSf, 15 µM; on DispLp, 1120 µM.

As to `CC(=O)N[C@H]1[C@H](OC[C@H]2O[C@@H]3SC(C)=N[C@@H]3[C@@H](O)[C@@H]2O)O[C@H](CO)[C@@H](O)[C@@H]1O` [di-NAG-thiazoline, GlcNAc-β(1,6)-GlcNAc-thiazoline], on DispTs2 [2], the “crystal structure by soaking (2.17 Å); only the NAG-thiazoline unit (NGT) modell” value is listed as “The electron density for the first unit of di-NAG-thiazoline (corresponding to GlcNAc-thiazoline, NGT in the PDB dictionary) was well defined”.

B1: DispTs2 (Terribacillus saccharophilus) (protein)
chain: QDQEKGITIDISRKYYSIKTLKAIVDEISANGGDYLQLHFSDNESYAIASEFLGQNSENPNSAYLTKKELLSLIAYSNDRNIMVIPDIDLPAHSKGWLNIMKEKDSGLYTDIVTDYSEDTLDYHNNAVALYTANQLLDEVLDLFYQPKFAGKQRIVLGGDEVPGSGAHQTDFIRFMNQIAKTAKASNYEPQMWNDSITPEGIQNLDRSFSILYWKQSTLSNGAQSLDVQDFEENGLSVYNYNAYSLYFLPSTRFTQEDITEQIDYMKWAYAYNKFFYISDYYKQVDTPNVKGSSLVFWGEHANDLSQERLLKQEKPLIQNFLGL
B1: the Michaelis constant (Km) (in general, the concentration of substrate that gives half-maximal velocity) in the data set “purified protein” is 2500 ± 100 µM.
